US12486237B2, “Polymorphic form of (-)-cibenzoline succinate” (CELLTRION INC., priority 2020, dated 2025)
Entries after “also recorded” stand apart in the source; their conditions may differ.

Experiments:
Type in all cases: physicochemical
[1] = Accelerated storage stability test (48-hour, accelerated aging conditions); details: 48-hour storage, AAC 40° C./75% RH
Protocol: For the crystalline and amorphous forms of (−)-cibenzoline succinate prepared according to Examples 1 to 4 above, a 48-hour storage stability test was performed under accelerated aging conditions (AAC; 40° C./75% RH).

[2] = Long-term storage stability at 60° C. evaluated by HT-XRPD, DSC, TGMS and UPLC
Protocol: The high-throughput XRD of the crystalline form was analyzed under the following conditions. • Manufacturer: Bruker, USA • Model: General Area Detector Diffraction System (GADDS) • Measurement temperature: 25° C. (RT) • 2θ measurement range: 1.5 to 41.5° • Exposure time: 90 seconds • Others: Measurement of intensity and geometric parameters with a V A NTEC-500 gas area detector (Bruker, USA) 9. High-Resolution X-Ray Diffraction (XRD) Analysis
Thermogravimetric analysis coupled with mass spectroscopy for the crystalline form was performed under the following conditions. • Manufacturer: Mettler-Toledo GmbH, Switzerland • Model: TGA/DSC 3+ STARe system • Temperature range: 25 to 300° C. • Temperature rise rate: 10° C./min • Mass spectrometer: mass spectrometer Omnistar GSD 301 T2 (Pfeiffer Vacuum GmbH, Germany) 11. Differential Scanning Calorimetry (DSC) Analysis
The calorimetric analysis of the crystalline form was performed by differential scanning calorimetry (DSC) under the following conditions. • Manufacturer: Metter Toredo GmbH, Switzerland • Model: heat flux DSC3+ STARe system • Temperature rise rate: 10° C./min • Temperature range: 25 to 300° C. • N2 flow rate: 50 ml/min. 12. Karl Fischer Titration Analysis
The mass of the crystalline form was measured by ultra-performance liquid chromatography-mass spectrometer (UPLC-MS) under the following conditions. • Manufacturer: Agilent, USA • Model: Agilent 1290 • Detector 1: UV detector set at 224 nm • Detector 2: MSD XT in Positive Scan Mode • Measurement temperature: 25° C. (RT) • Column: Agilent Eclipse Plus C18 HD (50×2.1 mm; 1.8 μm) • Column temperature: 35° C. • Flow cell: 10 mm path • Gradient: Mobile phase A: 10 mM Ammonium acetate/Mobile phase B: Acetonitrile • Flow: 0.8 ml/min • Sample concentration: 0.8 mg/ml • Solvent: Water: Acetonitrile (50:50 v/v) • Injection: 1 μl • Retention time: 1.54 min 15. Analysis of Particle Size Distribution (PSD)
Crystalline form 3 of (−)-cibenzoline succinate prepared according to Example 4 was stored at 60° C. for 4 weeks, and then the long-term storage stability thereof was evaluated by HT-XRPD, DSC, TGMS and UPLC analysis.

[3] = Particle size analysis by laser diffraction particle analyzer; details: dispersant heptane
Protocol: The particle size of the crystalline form was measured with a laser diffraction particle size analyzer under the following conditions. • Manufacturer: Malvern Instruments Limited, UK • Model: Mastersizer 2000 • Sampler: Hydro 2000 G/S Instrumental Conditions: • Particle reflection index (RI)): 1.52 • Dispersant: heptane • Absorbance: 0.1 • Refractive index of dispersant: 1.39 • Analysis model: general purpose • Sensitivity: enhanced • Absorption limit: 10-15% • Measurement time: 30 seconds (repeated three times per sample) • Agitation speed: 3500 RPM Sample Preparation:
About 150 mg of the sample was dissolved in 20 ml of 0.2% Span 85-containing heptane in a 50 ml beaker. The solution was sonicated for about 10 seconds and placed in a sampler, and when the absorption limit reached 10 to 15%, measurement was performed.
The particle size of crystalline form 3 of (−)-cibenzoline succinate prepared according to Example 4 was measured by a laser diffraction particle analyzer.

[4] = Dynamic vapor sorption (DVS) analysis
Protocol: Dynamic vapor sorption was measured using a vapor sorption analyzer under the following conditions. • Manufacturer: Surface Measurement Systems Ltd, UK • Model: DVS Adventure-I system • Analysis of crystalline form of obtained solid: HT-XRPD Relative Humidity Cycle:
Relative humidity was cycled from 40% to 95% (sorption), from 95% to 0% (desorption) and back to 40% (sorption 2). In each step, the relative humidity was changed to 10% at a constant temperature of 25° C. The weight equilibrium was set to a dm/dt of 0.002%/min.
Dynamic vapor sorption data (water sorption isotherms) were measured by a vapor sorption analyzer.

[5] = default reference value (before storage)

SMILES: O=C(O)CCC(=O)O.c1ccc(C2(c3ccccc3)C[C@@H]2C2=NCCN2)cc1 [Amorphous, (−)-cibenzoline succinate]
- Accelerated storage stability [1]: Unstable - presence of different

SMILES: O=C(O)CCC(=O)O.c1ccc(C2(c3ccccc3)C[C@@H]2C2=NCCN2)cc1 [Crystalline form 1, (−)-cibenzoline succinate]
- Accelerated storage stability [1]: Unstable - presence of different

SMILES: O=C(O)CCC(=O)O.c1ccc(C2(c3ccccc3)C[C@@H]2C2=NCCN2)cc1 [Crystalline form 2, (−)-cibenzoline succinate]
- Accelerated storage stability [1]: Unstable - presence of different

SMILES: O=C(O)CCC(=O)O.c1ccc(C2(c3ccccc3)C[C@@H]2C2=NCCN2)cc1 [Crystalline form 3, (−)-cibenzoline succinate]
- Accelerated storage stability [1]: Stable - presence of only
- Accelerated storage stability ([1]; listed as crystalline form 3): stable
- Chemical purity [2, 5]: 100%
- DSC [2, 5]: 193.2 °C
- TGA mass loss rate [2, 5]: 0.6%
- Long-term storage stability (crystalline form and chemical purity) ([2]; stored at 60° C. for 4 weeks): stable without changes in the crystalline form and chemical purity
- Chemical purity ([2]; stored at 60° C., week 1): 100%
- DSC ([2]; stored at 60° C., week 1): 191.2 °C
- TGA mass loss rate ([2]; stored at 60° C., week 1): 0.2%
- Chemical purity ([2]; stored at 60° C., week 4): 100%
- DSC ([2]; stored at 60° C., week 4): 191.1 °C
- TGA mass loss rate ([2]; stored at 60° C., week 4): 0.6%
- D10 [3]: 8.80 μm
- D50 [3]: 30.44 μm
- D90 [3]: 60.72 μm
- D50 ([3]; listed as crystalline form 3): 30.44 μm
- water absorption rate at 80% relative humidity ([4]; 25° C., 80% relative humidity): 0.2%
- water absorbed in sorption 2 ([4]; 25° C., relative humidity 0% back to 40%): absorbed almost no water
- water absorption rate in the sorption cycle ([4]; 25° C., relative humidity 40% to 95%): up to 0.3%
- release of absorbed water in the desorption cycle ([4]; 25° C., relative humidity 95% to 0%): completely released
- crystalline form of sample obtained after DVS (HT-XRPD) ([4]; after DVS cycle): maintained in Form D
- Hygroscopicity classification (European Pharmacopeia 5.0, 5.11) ([4]; based on water absorption at 80% relative humidity): non-hygroscopic; also recorded: non-hydroscopic

SMILES: O=C(O)CCC(=O)O.c1ccc(C2(c3ccccc3)C[C@@H]2C2=NCCN2)cc1 [Reference Example, (−)-cibenzoline succinate]
- D10 [3]: 17.10 μm
- D50 [3]: 127.82 μm
- D90 [3]: 307.56 μm
